Source: the supplement of paper PMC11208160

Assay: recombinant barcode read abundance after kanamycin selection (control-corrected) (log10(CPM+1)); higher = more efficient recombination; sequences stand for … in AGTGCAGAGAAAATCGGCCAGTTTTCTCTGCCTGCAGTCCGCATGCCGT…AGATTTATGCAGCGGACTGCCTTTCTCCCAAAGTGATAAACCGGACAGTATCATGGACCGGTTTTCCCGGTAATCCGTATTTGCAAGGTTGGTTTCACT; site = the 11-nt target
Outline: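 In a pooled screen in E. coli, targets were paired with target-binding loops of the IS621 bridge RNA. Each oligo carried a promoter, a target, a barcode and the first 104 bridge RNA bases driven by J23119, and was Gibson-cloned into a vector holding the remaining 73 bp and a T7-inducible recombinase before co-electroporation with a donor plasmid. Duplicate platings went onto chloramphenicol/ampicillin LB agar as the control or onto chloramphenicol/ampicillin/kanamycin with 0.1 mM IPTG. Recombination efficiency is the averaged, control-corrected count per million of barcodes at recombinant junctions, given as log10(CPM+1).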
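Further: IS621 recombinase and bridge RNA in Escherichia coli cells.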

Sequence | recombinant barcode read abundance (log10)
GCCTATGCTTGGGTTCTAACCTGTTGCCT (site GCCTATGCTAG) | 0.852
GCCTATGCTTGGGTTCTAACCTGTTGCCT (site GGCTATGCTAG) | 0.0448
GCCTATGCTTGGGTTCTAACCTGTTGCCT (site GTCTATGCTAG) | 0.0718
GCCTCTTCTTGGGTTCTAACCTGTTGCCT (site GCCTCTTCTAG) | 0.426
GCCTCTTCTTGGGTTCTAACCTGTTGCCT (site GTCTCTACTAG) | 0.0556
GCCTGGTCTTGGGTTCTAACCTGTTGCCT (site GCCTGGTCTAG) | 1.01
GCCTGGTCTTGGGTTCTAACCTGTTGCCT (site TCCTCGTCTAG) | 0.122
GCGACGCCTTGGGTTCTAACCTGTTGCCT (site ACGAAGCCTAG) | 0.0187
GCGACGCCTTGGGTTCTAACCTGTTGCCT (site GCGACGCCTAG) | 1.26
GCGACTCCTTGGGTTCTAACCTGTTGCCT (site GCGACTCCTAA) | 0.215
GCGACTCCTTGGGTTCTAACCTGTTGCCT (site GCGACTCCTAG) | 0.699
GCGATCCCTTGGGTTCTAACCTGTTGCTT (site CATGAGACTCC) | 0.0103
GCGATCCCTTGGGTTCTAACCTGTTGCTT (site GCGATCCCTAA) | 0.798
GCGCACCCTTGGGTTCTAACCTGTTGCAG (site CTGCACCCTCT) | 0.0518
GCGCACCCTTGGGTTCTAACCTGTTGCAG (site GCGCACCCTCT) | 1.15
GCGCATGCTTGGGTTCTAACCTGTTGCCT (site GCGCATGCTAG) | 0.788
GCGCATGCTTGGGTTCTAACCTGTTGCCT (site GTGCCTGCTAG) | 0.41
GCGCCCTCTTGGGTTCTAACCTGTTGCCT (site ACGCCCTCTAG) | 0.0862
GCGCCCTCTTGGGTTCTAACCTGTTGCCT (site GCGCCCTCTAG) | 0.7
GCGCGAACTTGGGTTCTAACCTGTTGCCT (site GCACGAACTAG) | 0.733
GCGCGAACTTGGGTTCTAACCTGTTGCCT (site GCCCGAACTAG) | 0.047
GCGCGAACTTGGGTTCTAACCTGTTGCCT (site GCGCGAACTAG) | 0.608

Sequence | recombinant barcode read abundance (log10)
GCGCGAACTTGGGTTCTAACCTGTTGCCT (site GCTCGAACTAG) | 0.125
GCGGAATCTTGGGTTCTAACCTGTTGCCT (site GCGGAATCTAG) | 1.28
GCGGAATCTTGGGTTCTAACCTGTTGCCT (site TCGGAATCTAG) | 0.469
GCGGACGCTTGGGTTCTAACCTGTTGCCT (site CCGGACCCTAG) | 0.0428
GCGGACGCTTGGGTTCTAACCTGTTGCCT (site GCGGACGCTAG) | 1.72
GCGGGTCCTTGGGTTCTAACCTGTTGCGT (site GCGGGTCCTAC) | 2.98
GCGGGTCCTTGGGTTCTAACCTGTTGCGT (site GCTGCTCCTAC) | 0.0517
GCGGTTCCTTGGGTTCTAACCTGTTGCCT (site GCCGCTCCTAG) | 0.139
GCGGTTCCTTGGGTTCTAACCTGTTGCCT (site GCGGTTCCTAG) | 1.96
GCGTATCCTTGGGTTCTAACCTGTTGCCT (site GCGAATCCTAG) | 0.127
GCGTATCCTTGGGTTCTAACCTGTTGCCT (site GCGCATCCTAG) | 0.0623
GCGTATCCTTGGGTTCTAACCTGTTGCCT (site GCGGATCCTAG) | 0.23
GCGTATCCTTGGGTTCTAACCTGTTGCCT (site GCGTATCCTAG) | 0.93
GCGTCGTCTTGGGTTCTAACCTGTTGCCT (site GCATCGTCTAG) | 0.134
GCGTCGTCTTGGGTTCTAACCTGTTGCCT (site GCCTCGTCTAG) | 0.193
GCGTCGTCTTGGGTTCTAACCTGTTGCCT (site GCGTCGTCTAG) | 0.0822
GCGTCGTCTTGGGTTCTAACCTGTTGCCT (site GCTTCGTCTAG) | 0.229
GCGTCTCCTTGGGTTCTAACCTGTTGCAT (site GCGACTCCTAT) | 0.209
GCGTCTCCTTGGGTTCTAACCTGTTGCAT (site GCGCCTCCTAT) | 0.012
GCGTCTCCTTGGGTTCTAACCTGTTGCAT (site GCGGCTCCTAT) | 0.0731
GCGTCTCCTTGGGTTCTAACCTGTTGCAT (site GCGTCTCCTAT) | 0.335
GCGTTTGCTTGGGTTCTAACCTGTTGCCT (site GAGTTTGCTAG) | 0.106

Sequence | recombinant barcode read abundance (log10)
GCGTTTGCTTGGGTTCTAACCTGTTGCCT (site GCGTTTGCTAG) | 1.01
GCGTTTGCTTGGGTTCTAACCTGTTGCCT (site GGGTTTGCTAG) | 0.0501
GCGTTTGCTTGGGTTCTAACCTGTTGCCT (site GTGTTTGCTAG) | 0
GCTAACACTTGGGTTCTAACCTGTTGCCT (site ACTAACACTAG) | 0.2
GCTAACACTTGGGTTCTAACCTGTTGCCT (site CCTAACACTAG) | 0.153
GCTAACACTTGGGTTCTAACCTGTTGCCT (site GCTAACACTAG) | 1.37
GCTAACACTTGGGTTCTAACCTGTTGCCT (site TCTAACACTAG) | 0.075
GCTAACCCTTGGGTTCTAACCTGTTGCGT (site GCGAACCCTCC) | 0
GCTAACCCTTGGGTTCTAACCTGTTGCGT (site GCTAACCCTAC) | 3.05
GCTAGGACTTGGGTTCTAACCTGTTGCTG (site CGGTCTGCTAT) | 0.163
GCTAGGACTTGGGTTCTAACCTGTTGCTG (site GCTAGGACTCA) | 2.12
GCTCAACCTTGGGTTCTAACCTGTTGCCT (site GATCAACCTAG) | 0.796
GCTCAACCTTGGGTTCTAACCTGTTGCCT (site GCTCAACCTAG) | 1.6
GCTCAACCTTGGGTTCTAACCTGTTGCCT (site GGTCAACCTAG) | 0.176
GCTCAACCTTGGGTTCTAACCTGTTGCCT (site GTTCAACCTAG) | 0.126
GCTCACTCTTGGGTTCTAACCTGTTGCTT (site GCTCACTCTAA) | 1.63
GCTCACTCTTGGGTTCTAACCTGTTGCTT (site GTTCCCTCTAA) | 0.0084
GCTCAGCCTTGGGTTCTAACCTGTTGCCT (site GCTCAGACTAG) | 0.0954
GCTCAGCCTTGGGTTCTAACCTGTTGCCT (site GCTCAGCCTAG) | 1.14
GCTCAGCCTTGGGTTCTAACCTGTTGCCT (site GCTCAGGCTAG) | 0.16
GCTCAGCCTTGGGTTCTAACCTGTTGCCT (site GCTCAGTCTAG) | 0.072
GCTCCGTCTTGGGTTCTAACCTGTTGCTT (site ACTCCGTCTTA) | 0.047

Sequence | recombinant barcode read abundance (log10)
GCTCCGTCTTGGGTTCTAACCTGTTGCTT (site GCTCCGTCTAA) | 0.644
GCTCGACCTTGGGTTCTAACCTGTTGCTG (site CGCTCCTCTAT) | 0.18
GCTCGACCTTGGGTTCTAACCTGTTGCTG (site GCTCGACCTCA) | 1.68
GCTCGTACTTGGGTTCTAACCTGTTGCAT (site GCTCGTACTAT) | 1.47
GCTCGTACTTGGGTTCTAACCTGTTGCAT (site TCGCGTACTAT) | 0.0401
GCTGAGACTTGGGTTCTAACCTGTTGCCG (site GATGAGACTCG) | 0.218
GCTGAGACTTGGGTTCTAACCTGTTGCCG (site GCTGAGACTCG) | 2.53
GCTGGACCTTGGGTTCTAACCTGTTGCAT (site GCTCGTCCTAT) | 0.0463
GCTGGACCTTGGGTTCTAACCTGTTGCAT (site GCTGGACCTAT) | 2.18
GCTGGCCCTTGGGTTCTAACCTGTTGCCT (site GATGGCCCTAG) | 0.0865
GCTGGCCCTTGGGTTCTAACCTGTTGCCT (site GCTGGCCCTAG) | 1.18
GCTGGCCCTTGGGTTCTAACCTGTTGCCT (site GGTGGCCCTAG) | 0.0479
GCTGGCCCTTGGGTTCTAACCTGTTGCCT (site GTTGGCCCTAG) | 0.481
GCTGGTCCTTGGGTTCTAACCTGTTGCCT (site GCAGGTCCTAG) | 0.311
GCTGGTCCTTGGGTTCTAACCTGTTGCCT (site GCCGGTCCTAG) | 0.431
GCTGGTCCTTGGGTTCTAACCTGTTGCCT (site GCGGGTCCTAG) | 0.205
GCTGGTCCTTGGGTTCTAACCTGTTGCCT (site GCTGGTCCTAG) | 1.75
GCTTAAACTTGGGTTCTAACCTGTTGCCT (site ATGGCCTCTTA) | 0.0724
GCTTAAACTTGGGTTCTAACCTGTTGCCT (site GCTTAAACTAG) | 1.04
GCTTCCACTTGGGTTCTAACCTGTTGCCT (site ACTTCCACTAG) | 0.074
